Assay results from publication PMC10653547, “Synergistic effect of two antimicrobial peptides, BP203 and MAP-0403 J-2 with conventional antibiotics against colistin-resistant Escherichia coli and Klebsiella pneumoniae clinical isolates” (PLOS ONE, 2023).

How the values were obtained:
[1] = tested on: colistin-resistant K. pneumoniae clinical isolates; assay: Checkerboard assay for synergy testing; format: cell-based, Klebsiella pneumoniae
Protocol: (§1) The synergistic activities of various two-antimicrobial combinations against colistin-resistant E. coli and K. pneumoniae isolates were evaluated using the checkerboard assay, which was performed in 96-well plates. […] Two-fold serial dilutions of peptides and antibiotics were independently prepared in CAMHB. Afterward, a mixture of different concentrations of the antibiotics and peptides was added to the wells of the microplates. Antibiotics and peptides were also dispended alone in the first row and the first column, respectively. Bacterial inoculum was added to the 96-well plate to achieve a final concentration of 5 × 10^5 CFU/mL. Then, plates were incubated at 37 °C for 20–24 h. MICs were recorded as the minimum concentration of antimicrobial agents without bacterial growth. The interaction between the antimicrobials was determined by calculating the fractional inhibitory concentration index (FICI) according to the formula: FICI = FIC(drug A) + FIC(drug B), where FIC = the MIC of the drug when in the combination/MIC of drug tested individually.

[2] = tested on: colistin-resistant E. coli clinical isolates; assay: Checkerboard assay for synergy testing; format: cell-based, Escherichia coli; details: checkerboard Ceftazedime+BP203
Protocol: as §1

[3] = isolate KP-01, checkerboard Ceftazedime+BP203
[4] = isolate KP-02, checkerboard Ceftazedime+BP203
[5] = isolate KP-03, checkerboard Ceftazedime+BP203
[6] = isolate KP-04, checkerboard Ceftazedime+BP203
[7] = isolate KP-05, checkerboard Ceftazedime+BP203
[8] = isolate KP-06, checkerboard Ceftazedime+BP203
[9] = isolate KP-07, checkerboard Ceftazedime+BP203
[10] = isolate KP-08, checkerboard Ceftazedime+BP203
[11] = isolate KP-09, checkerboard Ceftazedime+BP203
[12] = isolate KP-10, checkerboard Ceftazedime+BP203
[13] = checkerboard BP203 x meropenem, KP-01
[14] = checkerboard BP203 x meropenem, KP-02
[15] = checkerboard BP203 x meropenem, KP-03
[16] = checkerboard BP203 x meropenem, KP-04
[17] = checkerboard BP203 x meropenem, KP-05
[18] = checkerboard BP203 x meropenem, KP-06
[19] = checkerboard BP203 x meropenem, KP-08
[20] = checkerboard BP203 x meropenem, KP-09
[21] = checkerboard BP203 x meropenem, KP-10
[22] = checkerboard MAP-0403 J-2 x meropenem, KP-01
[23] = checkerboard MAP-0403 J-2 x meropenem, KP-02
[24] = checkerboard MAP-0403 J-2 x meropenem, KP-03
[25] = checkerboard MAP-0403 J-2 x meropenem, KP-05
[26] = checkerboard MAP-0403 J-2 x meropenem, KP-06
[27] = checkerboard MAP-0403 J-2 x meropenem, KP-07
[28] = checkerboard MAP-0403 J-2 x meropenem, KP-08
[29] = checkerboard MAP-0403 J-2 x meropenem, KP-09
[30] = checkerboard MAP-0403 J-2 x meropenem, KP-10

CC(C)(O/N=C(\C(=O)N[C@@H]1C(=O)N2C(C(=O)[O-])=C(C[n+]3ccccc3)CS[C@H]12)c1csc(N)n1)C(=O)O [Ceftazedime]
4 µg/mL: MIC combination [1, 7] | MIC combination ([2]; isolate EC-01) | MIC combination ([2]; isolate EC-02) | MIC combination ([2]; isolate EC-10)
256 µg/mL: MIC alone [1, 8]
1 µg/mL: MIC alone ([2]; isolate EC-05)
64 µg/mL: MIC combination [1, 10]
0.25 µg/mL: MIC combination ([2]; isolate EC-05) | MIC combination ([2]; isolate EC-08)
8 µg/mL: MIC combination [1, 3] | MIC alone ([2]; isolate EC-01) | MIC combination ([2]; isolate EC-03) | MIC combination ([2]; isolate EC-04) | MIC combination ([2]; isolate EC-07) | MIC combination ([2]; isolate EC-09) | MIC alone ([2]; isolate EC-10)
16 µg/mL: MIC combination [1, 4] | MIC combination [1, 8] | MIC alone ([2]; isolate EC-02) | MIC alone ([2]; isolate EC-06) | MIC alone ([2]; isolate EC-07) | MIC alone ([2]; isolate EC-09)
0.5 µg/mL: MIC combination ([2]; isolate EC-06) | MIC alone ([2]; isolate EC-08)
128 µg/mL: MIC alone [1, 3] | MIC alone [1, 4] | MIC combination [1, 5] | MIC combination [1, 11]
32 µg/mL: MIC combination [1, 12] | MIC alone ([2]; isolate EC-03) | MIC alone ([2]; isolate EC-04)
1020 µg/mL: MIC alone [1, 9]
512 µg/mL: MIC alone [1, 5] | MIC alone [1, 6] | MIC combination [1, 6] | MIC alone [1, 7] | MIC combination [1, 9] | MIC alone [1, 10] | MIC alone [1, 11] | MIC alone [1, 12]

C[C@@H](O)[C@H]1C(=O)N2C(C(=O)O)=C(S[C@@H]3CN[C@H](C(=O)N(C)C)C3)[C@H](C)[C@H]12 [Meropenem, meropenem]
8 µg/mL: MIC alone [1, 13] | MIC combination [1, 19] | MIC alone [1, 23] | MIC combination [1, 23] | MIC alone [1, 26] | MIC combination [1, 30]
2 µg/mL: MIC combination [1, 13] | MIC combination [1, 22]
256 µg/mL: MIC alone [1, 16]
4 µg/mL: MIC combination [1, 14] | MIC combination [1, 18] | MIC combination [1, 21] | MIC alone [1, 22] | MIC combination [1, 26]
0.25 µg/mL: MIC combination [1, 24]
64 µg/mL: MIC alone [1, 15] | MIC combination [1, 16] | MIC alone [1, 17] | MIC alone [1, 19] | MIC alone [1, 20] | MIC alone [1, 27] | MIC combination [1, 27] | MIC alone [1, 28] | MIC combination [1, 28] | MIC alone [1, 29]
32 µg/mL: MIC combination ([1]; checkerboard BP203 x meropenem, KP-07) | MIC alone [1, 24] | MIC alone [1, 25] | MIC combination [1, 25] | MIC combination [1, 29]
16 µg/mL: MIC alone [1, 14] | MIC combination [1, 15] | MIC combination [1, 17] | MIC alone [1, 18] | MIC combination [1, 20] | MIC alone [1, 21] | MIC alone [1, 30]
